{"source": "PubChem BioAssay (NCI)", "assay_in_all_cases": "NCI anticancer screen, dose series, 48 h", "key": {"PC-3 prostate": {"tested_on": "PC-3 prostate"}, "NCI-H522 lung": {"tested_on": "NCI-H522 lung"}, "MDA-MB-231 breast": {"tested_on": "MDA-MB-231 breast"}, "BT-549 breast": {"tested_on": "BT-549 breast"}, "NCI-H460 lung": {"tested_on": "NCI-H460 lung"}, "K-562 leukemia": {"tested_on": "K-562 leukemia"}, "SF-539 CNS": {"tested_on": "SF-539 CNS"}, "RXF 393 renal": {"tested_on": "RXF 393 renal"}, "NCI-H23 lung": {"tested_on": "NCI-H23 lung"}, "MALME-3M melanoma": {"tested_on": "MALME-3M melanoma"}, "HT29 colon": {"tested_on": "HT29 colon"}, "A549 NSCLC": {"tested_on": "A549 NSCLC"}, "A498 renal": {"tested_on": "A498 renal"}, "CCRF-CEM leukemia": {"tested_on": "CCRF-CEM leukemia"}, "TK-10 renal": {"tested_on": "TK-10 renal"}, "LOX IMVI melanoma": {"tested_on": "LOX IMVI melanoma"}, "T-47D breast": {"tested_on": "T-47D breast"}, "SNB-75 CNS": {"tested_on": "SNB-75 CNS"}, "SW-620 colon": {"tested_on": "SW-620 colon"}, "SR leukemia": {"tested_on": "SR leukemia"}, "786-0 renal": {"tested_on": "786-0 renal"}, "HCT-15 colon": {"tested_on": "HCT-15 colon"}, "SK-MEL-28 melanoma": {"tested_on": "SK-MEL-28 melanoma"}, "KM12 colon": {"tested_on": "KM12 colon"}, "HL-60(TB) leukemia": {"tested_on": "HL-60(TB) leukemia"}, "COLO 205 colon": {"tested_on": "COLO 205 colon"}, "ACHN renal": {"tested_on": "ACHN renal"}, "MCF7 breast": {"tested_on": "MCF7 breast"}, "OVCAR-4 ovarian": {"tested_on": "OVCAR-4 ovarian"}}, "note": "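Exposure lasted 48 hours, with cells grown in 96-well plates and compounds tested at five concentrations. At the GI50, growth is halved. The concentration for full growth arrest is given as TGI.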"}
{"smiles": "COc1ccc2nc(Cl)c(-c3cc(-c4ccccc4)nc(=O)[nH]3)cc2c1", "values": [{"measurement": "GI50", "setting": "PC-3 prostate", "result": 14.2, "unit": "µM"}, {"measurement": "TGI", "setting": "PC-3 prostate", "result": 56, "unit": "µM"}, {"measurement": "GI50", "setting": "NCI-H522 lung", "result": 17, "unit": "µM"}, {"measurement": "TGI", "setting": "NCI-H522 lung", "result": 42.4, "unit": "µM"}, {"measurement": "GI50", "setting": "MDA-MB-231 breast", "result": 16.7, "unit": "µM"}, {"measurement": "TGI", "setting": "MDA-MB-231 breast", "result": 43.7, "unit": "µM"}, {"measurement": "GI50", "setting": "BT-549 breast", "result": 11.9, "unit": "µM"}, {"measurement": "TGI", "setting": "BT-549 breast", "result": 28.7, "unit": "µM"}, {"measurement": "GI50", "setting": "NCI-H460 lung", "result": 5.69, "unit": "µM"}, {"measurement": "TGI", "setting": "NCI-H460 lung", "result": 20.6, "unit": "µM"}, {"measurement": "GI50", "setting": "K-562 leukemia", "result": 2.98, "unit": "µM"}, {"measurement": "TGI", "setting": "K-562 leukemia", "result": 59.2, "unit": "µM"}, {"measurement": "GI50", "setting": "SF-539 CNS", "result": 11.2, "unit": "µM"}, {"measurement": "TGI", "setting": "SF-539 CNS", "result": 23.9, "unit": "µM"}, {"measurement": "GI50", "setting": "RXF 393 renal", "result": 13.3, "unit": "µM"}, {"measurement": "TGI", "setting": "RXF 393 renal", "result": 33, "unit": "µM"}, {"measurement": "GI50", "setting": "NCI-H23 lung", "result": 12, "unit": "µM"}, {"measurement": "TGI", "setting": "NCI-H23 lung", "result": 32.7, "unit": "µM"}, {"measurement": "GI50", "setting": "MALME-3M melanoma", "result": 15.9, "unit": "µM"}, {"measurement": "TGI", "setting": "MALME-3M melanoma", "result": 31.9, "unit": "µM"}, {"measurement": "GI50", "setting": "HT29 colon", "result": 18.3, "unit": "µM"}, {"measurement": "TGI", "setting": "HT29 colon", "result": 40.8, "unit": "µM"}, {"measurement": "GI50", "setting": "A549 NSCLC", "result": 20.7, "unit": "µM"}, {"measurement": "TGI", "setting": "A549 NSCLC", "result": "> 100", "unit": "µM"}, {"measurement": "GI50", "setting": "A498 renal", "result": 26.1, "unit": "µM"}, {"measurement": "TGI", "setting": "A498 renal", "result": 74.3, "unit": "µM"}, {"measurement": "GI50", "setting": "CCRF-CEM leukemia", "result": 2.96, "unit": "µM"}, {"measurement": "TGI", "setting": "CCRF-CEM leukemia", "result": 34.3, "unit": "µM"}, {"measurement": "GI50", "setting": "TK-10 renal", "result": 29, "unit": "µM"}, {"measurement": "TGI", "setting": "TK-10 renal", "result": "> 100", "unit": "µM"}, {"measurement": "GI50", "setting": "LOX IMVI melanoma", "result": 3.86, "unit": "µM"}, {"measurement": "TGI", "setting": "LOX IMVI melanoma", "result": 33.5, "unit": "µM"}, {"measurement": "GI50", "setting": "T-47D breast", "result": 25.8, "unit": "µM"}, {"measurement": "TGI", "setting": "T-47D breast", "result": "> 100", "unit": "µM"}, {"measurement": "GI50", "setting": "SNB-75 CNS", "result": 13.1, "unit": "µM"}, {"measurement": "TGI", "setting": "SNB-75 CNS", "result": 37.1, "unit": "µM"}, {"measurement": "GI50", "setting": "SW-620 colon", "result": 6.44, "unit": "µM"}, {"measurement": "TGI", "setting": "SW-620 colon", "result": 35.1, "unit": "µM"}, {"measurement": "GI50", "setting": "SR leukemia", "result": 1.55, "unit": "µM"}, {"measurement": "TGI", "setting": "SR leukemia", "result": 5.47, "unit": "µM"}, {"measurement": "GI50", "setting": "786-0 renal", "result": 12.4, "unit": "µM"}, {"measurement": "TGI", "setting": "786-0 renal", "result": 40.2, "unit": "µM"}, {"measurement": "GI50", "setting": "HCT-15 colon", "result": 6.66, "unit": "µM"}, {"measurement": "TGI", "setting": "HCT-15 colon", "result": 33.6, "unit": "µM"}, {"measurement": "GI50", "setting": "SK-MEL-28 melanoma", "result": 15.9, "unit": "µM"}, {"measurement": "TGI", "setting": "SK-MEL-28 melanoma", "result": 31, "unit": "µM"}, {"measurement": "GI50", "setting": "KM12 colon", "result": 4.25, "unit": "µM"}, {"measurement": "TGI", "setting": "KM12 colon", "result": 17.1, "unit": "µM"}, {"measurement": "GI50", "setting": "HL-60(TB) leukemia", "result": 5.32, "unit": "µM"}, {"measurement": "TGI", "setting": "HL-60(TB) leukemia", "result": 33, "unit": "µM"}, {"measurement": "GI50", "setting": "COLO 205 colon", "result": 17, "unit": "µM"}, {"measurement": "TGI", "setting": "COLO 205 colon", "result": 41.5, "unit": "µM"}, {"measurement": "GI50", "setting": "ACHN renal", "result": 14.7, "unit": "µM"}, {"measurement": "TGI", "setting": "ACHN renal", "result": 32.3, "unit": "µM"}, {"measurement": "GI50", "setting": "MCF7 breast", "result": 4.22, "unit": "µM"}, {"measurement": "TGI", "setting": "MCF7 breast", "result": 31.6, "unit": "µM"}, {"measurement": "GI50", "setting": "OVCAR-4 ovarian", "result": 20.4, "unit": "µM"}, {"measurement": "TGI", "setting": "OVCAR-4 ovarian", "result": 79.9, "unit": "µM"}]}
